# In patent publication US7713960B2, “Inhibition of the Raf/Mek/P-Erk pathway for treating cancer” (University of South Florida, priority 2005, dated 2010):
# Structures can show the parent of a compound that is named as a salt.
# Key:
# ACHN cells = test: Total cellular cAMP measurement, ACHN; type: cell-based, human
# Procedure: (§1) Total cellular cAMP measurement—The measurement of total cellular cAMP was done using a cAMP Biotrak ™ Enzymeimmunoassay (EIA) system (Amersham Biosciences, Piscataway, N.J.) according to the manufacturer's protocol. Briefly, 2000 cells were plated into each well of a 96 well plate. The next day cells were treated with increasing concentrations of ARA-211 or with vehicle for one hour. Alternatively, MDA-MB-231 cells were pre-treated with antagonists to the α1 (Prazosin, Sigma), α2 (Yohimbine, Sigma), β1 (Metoprolol, Sigma), and β2 (ICI 118.551, Sigma) adrenergic receptors at 100 nM for 15 minutes followed by treatment with 10 μM ARA-211 for 45 minutes. Cells were then lysed directly in the wells using the supplied lysis buffer. The lysate was transferred to a 96-well cAMP ELISA plate, and results were quantified using a Wallac Victor 2 plate reader.
# HCT-116 cells [1] = test: Total cellular cAMP measurement, HCT-116; type: cell-based, human
# Procedure: as §1
# MDA-MB-231 cells = test: Anchorage-dependent growth (MTT assay), MDA-MB-231; type: cell-based, human
# Procedure: (§2) MTT Assay—2000 cells per well were plated into 96 well tissue culture plates, and the cells were allowed to attach overnight at 37° C. with 10% CO2. Cells were then treated with increasing concentrations of ARA-211, or vehicle (DMSO) and incubated for four days. At that time treatment medium was removed and replaced with 100 μl of lmg/ml MTT (Sigma-Aldrich, St. Louis, Mo.) in media and incubated at 37° C., 10% CO2 for 3 hours. After 3 hours the MTT media was removed and replaced with 100 μl/well of DMSO, rocked at room temperature for 5 minutes, then absorbance read at 540 nm on a micro-plate reader.
# HCT-116 cells [2] = test: Anchorage-dependent growth (MTT assay), HCT-116; type: cell-based, human
# Procedure: as §2
# HCT-116 cells [3] = test: Anchorage-independent growth (soft agar assay), HCT-116; type: cell-based, human
# Procedure: Soft Agar Assay—Anchorage independent growth assays were performed as previously described (Lerner et al., 1997). Briefly, agar was diluted to 0.3% in propagation media containing 20,000 cells and either vehicle or ARA-211 and 1 ml of cell/agar mixture plated on top of 2 ml of a 0.6% layer of agar in medium alone. Cells were grown for three to four weeks at 37° C., 10% Co2 and were fed weekly with 100 μl per well of media/treatment. Quantification of colonies was done using a GS-700 scanning densitometer.
# SNB-19 cells = test: Apoptosis assay (Cell Death Detection ELISA), SNB-19; type: cell-based, human; details: 48 hours, two single values
# Procedure: Apoptosis Assay—Apoptosis was analyzed using the Cell Death Detection ELISA (Roche, Indianapolis, Ind.) measuring cytoplasmic histone-associated mono- and oligonucleosome DNA fragments. Procedures were carried out according to the manufacturers protocol. Briefly, 1×10^5 cells were plated in 60 mm dishes and treated with various doses of ARA-211 or vehicle for 48 hours. Cells were lysed with the provided lysis buffer and lysate was incubated on the ELISA plate for 1 hour to capture the histone associated DNA indicative of apoptotic cells. Anti-DNA peroxidase conjugated antibody was added to detect the cleaved DNA and the microplate was washed and developed with ABTS substrate which was quantitated by microplate reader at 405 nm.
# A-549 cells = test: Nude mouse xenograft model, A-549 (s.c.); type: in vivo, nude mice; details: A-549 xenograft; i.p. 75 mpk/day
# Description: Anti-tumor activity in nude mouse xenograft model—Female athymic nude (nu/nu) mice, 5-6 weeks old, were purchased from Charles River (Wilmington, Mass.) and allowed to acclimate in the animal facility for one week. After harvesting, A-549, SNB-19, ACHN, and HCT-116 cells were, resuspended in sterile PBS, and injected s.c. into the right and left flanks (10×10^6 cells per flank) of the mice as previously described (Sun et al., 2005). For MDA-MB-231, cells were harvested and resuspended in PBS (10×10^6 cells per 50 μl) and an equal volume of Matrigel (BD Biosciences, San Jose, Calif.). 100 μl of MDA-MB-231 cells in PBS/Matrigel were injected s.c. into the mammary fat pads between the 2nd and 3rd nipples on each side of the mice. Once the tumors reached approximately 200-300 mm^3 the mice were randomized and treated i.p. with 0.1 ml vehicle (PBS) or ARA-211. Each treatment group consisted of five mice (2 tumors per mouse, a total of 10 tumors). The tumor volumes were determined by measuring the length (l) and width (w) and calculating the volume (V=w^2l/2). Statistical significance between the control and treated animals was determined using a student's t test.
# Rap-1 = Rap-1 activation assay, ACHN cells; type: cell-based, human
# Procedure: The effect of B2AR stimulation on Rap1 was investigated using the following methods: A Rap-1 activation assay kit (Upstate, Temecula, Calif.) was used according to protocol to determine if stimulation of the B2AR by ARA-211, and subsequent downstream signaling resulting in inhibition of P-Erk 1/2, is mediated by activation of Rap-1 directly by the Rap-1 guanine nucleotide exchange factor Epac. […] Cells were incubated with drugs for 1 hour unless noted otherwise. Cells were then lysed, the positive control lysate was incubated with 10 mM EDTA and 100 μM GTPγS and incubated for 30 minutes to load GTP onto Rap-1. Lysates from all samples were then incubated with 25 μg GST-RalGDS-Rap-1 binding domain beads for 45 minutes, washed with assay buffer 3×, resuspended in 40 μl of 2×Laemmli sample buffer and boiled for 5 minutes. Samples were resolved by SDS-PAGE electrophoresis, transferred to nitrocellulose, blotted overnight with 1 μ/ml polyclonal anti-Rap-1, and visualized by chemiluminescence.
structure (smiles),measurement,setting,value
"CC(C)(C)NCC(O)c1ccc(O)c(CO)n1 (stereo not drawn) [ARA-211, 2-hydroxymethyl-3-hydroxy-6-(1-hydroxy-2-tert-butylaminoethyl) pyridine, dihydrochloride]",cAMP (Fold Induction),ACHN cells,16.5 ± 3.2 Fold
same,cAMP (Fold Induction),HCT-116 cells [1],1.1 ± 0.1 Fold
same,Anchorage Dependent Growth (% Inhibition),MDA-MB-231 cells,60.6 ± 6.5%
same,Anchorage Dependent Growth (% Inhibition),HCT-116 cells [2],6.5 ± 4%
same,Anchorage Independent Growth (% Inhibition),HCT-116 cells [3],7.3 ± 3.1%
same,Apoptosis (% Induction),SNB-19 cells,"0, 0%"
same,growth of tumors,A-549 cells,is not affected
same,Rap-1 activation (GTP-loaded Rap-1),"Rap-1; 10 μM, 1 hour",activated Rap-1
same,Rap-1 activation after blocking PKA kinase activity,Rap-1; pre-treatment with 10 μM H89 (1 hr) followed by ARA-211,had no effect on the ability of ARA-211 to stimulate Rap-1 activation
